What was measured:
[1] = system: c-MYC Pu22 (DNA, G4) TGAGGGTGGGTAGGGTGGGTAA; assay: fluorescence polarization titration; details: K+ 100 mM; Tris 50 mM pH 7.2, DBI 1 μM, DMSO 1%, DNA 0-10 μM
[2] = system: HIF-1α (DNA, G4) GCGCGGGGAGGGGAGAGGGGGCGGGAGCGCG; assay: fluorescence polarization titration; details: K+ 100 mM; Tris 50 mM pH 7.2, DBI 1 μM, DMSO 1%, DNA 0-10 μM
[3] = system: TERRA (RNA, G4) UUAGGGUUAGGGUUAGGGUUAGGG; assay: fluorescence polarization titration; details: no or very weak binding response, group statement for all four RNAs
[4] = system: mut HIF-1α (DNA, single strand) GCGCGGCGAGCGGAGAGGGCGCGCGAGCGCG; assay: fluorescence polarization titration; details: K+ 100 mM; Tris 50 mM pH 7.2, DBI 1 μM, DMSO 1%, DNA up to 10 μM
[5] = system: Bom17 (DNA, G4) GGTTAGGTTAGGTTAGG; assay: CD melting; details: K+ 5 mM; Tris 10 mM pH 7.2, DBI 10 μM, oligonucleotide 2 μM, DMSO 2%
[6] = system: sc ds-DNA (DNA, duplex) CAATCGGATCGAATTCGATCCGATTG; assay: fluorescence polarization titration; details: K+ 100 mM; Tris 50 mM pH 7.2, DBI 1 μM, DMSO 1%, DNA up to 10 μM
[7] = system: c-MYC Pu24T (DNA, G4) TGAGGGTGGTGAGGGTGGGGAAGG; assay: CD melting; details: K+ 5 mM; Tris 10 mM pH 7.2, DBI 10 μM, oligonucleotide 2 μM, DMSO 2%
[8] = system: sc ds-DNA (DNA, duplex) CAATCGGATCGAATTCGATCCGATTG; assay: CD melting; details: K+ 5 mM; Tris 10 mM pH 7.2, DBI 10 μM, oligonucleotide 2 μM, DMSO 2%
[9] = system: C-rich HIF-1α (DNA, single strand) CGCGCTCCCGCCCCCTCTCCCCTCCCCGCGC; assay: fluorescence polarization titration; details: K+ 100 mM; Tris 50 mM pH 7.2, DBI 1 μM, DMSO 1%, DNA up to 10 μM
[10] = system: Tel-22 (DNA, G4) AGGGTTAGGGTTAGGGTTAGGG; assay: CD melting; details: K+ 5 mM; Tris 10 mM pH 7.2, DBI 10 μM, oligonucleotide 2 μM, DMSO 2%
[11] = system: 4G3U3 (RNA, G4) GGGUUUGGGUUUGGGUUUGGG; assay: fluorescence polarization titration; details: no or very weak binding response, group statement for all four RNAs
[12] = system: 4G3U3 (RNA, G4) GGGUUUGGGUUUGGGUUUGGG; assay: CD melting; details: K+ 5 mM; Tris 10 mM pH 7.2, DBI 10 μM, oligonucleotide 2 μM, DMSO 2%
[13] = system: sc ds-RNA (RNA, duplex) CAAUCGGAUCGAAUUCGAUCCGAUUG; assay: fluorescence polarization titration; details: no or very weak binding response, group statement for all four RNAs
[14] = system: FMR1 (RNA, G4) GGAGGGGGAGGAAGAGGACAAGGAGGAAGAGG; assay: fluorescence polarization titration; details: no or very weak binding response, group statement for all four RNAs
[15] = system: c-MYC Pu22 (DNA, G4) TGAGGGTGGGTAGGGTGGGTAA; assay: CD melting; details: K+ 5 mM; Tris 10 mM pH 7.2, DBI 10 μM, oligonucleotide 2 μM, DMSO 2%
[16] = system: ds-DNA HIF-1α (DNA, duplex) GCGCGGGGAGGGGAGAGGGGGCGGGAGCGCG/CGCGCTCCCGCCCCCTCTCCCCTCCCCGCGC; assay: CD melting; details: K+ 5 mM; Tris 10 mM pH 7.2, DBI 10 μM, oligonucleotide 2 μM, DMSO 2%

Which Ka [1] does the source give for CCC(CC)n1c(=O)c2ccc3sc4ccc5ccccc5c4c4ccc(c1=O)c2c34 here?
The Ka was 4.5 × 10^5 ± 1.1 M^−1.

And the Ka [2]?
The Ka was 4.6 × 10^5 ± 0.5 M^−1.

What about the binding [3] of the same compound?
The binding was “weak”.

And the binding [4]?
Its binding is “no”.

And the ΔTm [5]?
The ΔTm was -0.1 °C.

What about the binding [6] of the same compound?
The binding was “no”.

What about the ΔTm [7] of the same compound?
Its ΔTm is 3.3 °C.

And the ΔTm [8]?
Its ΔTm is -1.5 °C.

And the binding [9]?
Its binding is “no”.

And the ΔTm [10]?
Its ΔTm is -1.3 °C.

And the binding [11]?
Its binding is “weak”.

What about the ΔTm [12] of the same compound?
Its ΔTm is 0.6 °C.

What about the binding [13] of the same compound?
Its binding is “weak”.

And the binding [14]?
Its binding is “weak”.

And the ΔTm [15]?
Its ΔTm is 7.3 °C.

And the ΔTm [16]?
The ΔTm was 2 °C.
